Reference: patent US20160227778A1, “SEED DRESSING FOR CONTROLLING PHYTOPATHOGENIC FUNGI” (BAYER INTELLECTUAL PROPERTY GMBH, priority 2004, published 2016)

Legend:
Assay type in all cases: in vivo
Rhizoctonia solani [1] = experiment: Rhizoctonia solani test (cotton)/seed treatment; settings: dry seed dressing, application rate 50 g/100 kg of seed, evaluated after 7-8 days, method of Abbot
Method: Rhizoctonia solani Test (Cotton)/Seed Treatment The active compounds are applied as dry seed dressing. This is prepared by extending the active compounds in question with ground minerals to give a finely pulverulent mixture which ensures uniform distribution on the seed surface. To dress the seed, the seed together with the seed dressing is shaken for 3 minutes in a closed glass bottle. 2×50 seed corns are sown in standardized soil in seed trays. Perlite infected with Rhizoctonia solani (5 ml/seed tray) is scattered between the seed and covered with Lecaton, and the seeds are then cultivated in a greenhouse at a temperature of about 22° C. and 15 hours of light per day. After 7-8 days, all the emerged and diseased plants are evaluated. The effect is calculated by the method of Abbot. 0% means an efficacy which corresponds to that of the control, whereas an efficacy of 100% means that no infection is observed.

Pyrenophora graminea = Pyrenophora graminea test (barley)/seed treatment/outdoor trial; settings: summer barley, infected seed, outdoor trial, application rate 10 g/100 kg of seed, evaluated at begin of heading
Method: Pyrenophora graminea Test (Barley)/Seed Treatment/Outdoor Trial
Cereal species: Summer barley Plot size: 2 m^2 Amount of seed per plot: 40 g Number of repetitions: 3 Development stage at the time of evaluation: Begin of heading
The active compounds are applied as a commercial formulation.
For dressing, the preparation is initially charged in a dressing beaker and placed on a dressing shaker. The infected seed is added and shaken for about 2-3 min, until homogenization is achieved.
After preparing the soil in a customary manner, outdoor sowing is carried out at a time which favours infection by the disease.
Evaluation is carried out at a time when all the disease symptoms are clearly present. 0% means an efficacy which corresponds to that of the control, whereas an efficacy of 100% means that no infection is observed.

Rhizoctonia solani [2] = experiment: Rhizoctonia solani test (rice)/seed treatment; settings: rice (cultivar Koshihikari), seed dressing, application rate 200 g/100 kg of seed, evaluated seven days after inoculation
Method: Rhizoctonia solani Test (Rice)/Seed Treatment Rice seed (cultivar Koshihikari) is soaked at 15° C. in distilled water for 10 days, transferred into fresh water and, whilst being ventilated, soaked at 32° C. for 1 day. The seed is then dried at room temperature for a number of hours. 7.6 mg of the test substance are dissolved in 200 μl of acetone in a test vessel, an aliquot of seed (corresponding to 3.8 g of dry seed) is added, the samples mixed and the acetone is aspirated. The seed is sown on soil in a plastic vessel having a diameter of 7.5 cm and cultivated in an incubator at 32° C. with high atmospheric humidity in the dark for 3 days. The seedlings are then cultivated in a greenhouse at on average 21° C. for 2 weeks. In each case 5 seedlings are transferred into 5 plastic vessels having a diameter of 12 cm and cultivated in a greenhouse at on average 25° C. for 5-6 weeks. Mycelia of Rhizoctonia solani which had been grown on sterile barley corns are placed at the foot of the rice plant (5 cm from the soil surface) and incubated in a glass chamber with high atmospheric humidity at on average 27° C. Seven days after the inoculation, the degree of infection is evaluated and the efficacy is calculated. [table]

Ustilago nuda = Ustilago nuda test (barley)/seed treatment/outdoor trial; settings: summer barley, infected seed, outdoor trial, application rate 10 g/100 kg of seed, evaluated at begin to middle of blossom
Method: Ustilago nuda Test (Barley)/Seed Treatment/Outdoor Trial Cereal species: Summer barley Amount of seed per plot: 40 g Plot size: 2 m^2 Number of repetitions: 3 Development stage: Begin to middle of blossom The active compounds are applied as a commercial formulation. For dressing, the preparation is initially charged in a dressing beaker and placed on a dressing shaker. The infected seed is added and shaken for about 2-3 min, until homogenization is achieved. After preparing the soil in a customary manner, outdoor sowing is carried out at a time which favours infection by the disease. Evaluation is carried out at a time when all the disease symptoms are clearly present. 0% means an efficacy which corresponds to that of the control, whereas an efficacy of 100% means that no infection is observed.

Cc1nn(C)c(F)c1C(=O)Nc1ccccc1C(C)CC(C)C (stereo not shown) [drawing 46] gave an Efficacy in % (Rhizoctonia solani [1]) of 100%.

Molecule CC(C)CC(C)c1sccc1NC(=O)c1cn(C)nc1C(F)(F)F (stereo not shown) [drawing 47] has an Efficacy in % (Rhizoctonia solani [1]) of 100%.

Work on Cc1nn(C)c(F)c1C(=O)Nc1ccccc1C(C)CC(C)C (stereo not shown) [drawing 48] yielded an Efficacy in % (Pyrenophora graminea) of 97%.

In the case of CC(C)CC(C)c1sccc1NC(=O)c1cn(C)nc1C(F)(F)F (stereo not shown) [drawing 49], the Efficacy in % (Pyrenophora graminea) was 97%.

Cc1nn(C)c(F)c1C(=O)Nc1ccccc1C(C)CC(C)C (stereo not shown) [drawing 50] gave an Efficacy in % (Rhizoctonia solani [2]) of 91%.

Cc1nn(C)c(F)c1C(=O)Nc1ccccc1C(C)CC(C)C (stereo not shown) [drawing 51] gave an Efficacy in % (Ustilago nuda) of 100%.

With CC(C)CC(C)c1sccc1NC(=O)c1cn(C)nc1C(F)(F)F (stereo not shown) [drawing 52] the Efficacy in % (Ustilago nuda) was 99%.
